The structures appear in SMILES notation.

Test [1] deals with T1, recombinant human PARP7 protein (Homo sapiens, UniProt Q7Z3E1).
T1 construct: purchased Abcam ab271651
T1 sequence (Q7Z3E1 1-657): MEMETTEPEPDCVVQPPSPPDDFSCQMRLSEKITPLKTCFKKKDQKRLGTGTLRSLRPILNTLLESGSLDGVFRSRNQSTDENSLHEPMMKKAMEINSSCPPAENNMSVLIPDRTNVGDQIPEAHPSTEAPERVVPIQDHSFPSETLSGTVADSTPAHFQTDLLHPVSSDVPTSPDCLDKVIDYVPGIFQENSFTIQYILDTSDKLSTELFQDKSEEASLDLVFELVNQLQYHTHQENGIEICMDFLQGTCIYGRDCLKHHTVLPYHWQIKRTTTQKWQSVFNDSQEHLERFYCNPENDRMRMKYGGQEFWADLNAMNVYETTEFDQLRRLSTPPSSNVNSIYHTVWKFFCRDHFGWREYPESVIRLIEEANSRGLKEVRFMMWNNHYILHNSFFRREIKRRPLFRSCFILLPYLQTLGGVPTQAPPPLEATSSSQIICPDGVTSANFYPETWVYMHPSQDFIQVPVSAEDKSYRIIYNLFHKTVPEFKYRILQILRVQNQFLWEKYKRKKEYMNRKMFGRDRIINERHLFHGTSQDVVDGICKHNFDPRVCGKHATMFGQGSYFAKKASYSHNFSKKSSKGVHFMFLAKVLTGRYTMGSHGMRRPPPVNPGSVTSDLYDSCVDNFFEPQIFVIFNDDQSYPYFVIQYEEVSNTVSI
Put plainly: Inhibition of PARP7 biological enzyme activity (histone-coated plate, Biotin-NAD+, chemiluminescence). Type of test: biochemical. As to conditions: recombinant human PARP7, Biotin-NAD+ substrate. The protocol:
The recombinant human PARP7 protein kit (Abcam, catalog number ab271651) was used for the assay. According to the kit instructions, 30 μL of histone coating solution (1.5 μg/mL) was first applied to the 384 well holes of the reaction plate and coated at 4° C. for 2 hours. Then, the histone coated solution was washed off, and 50 μL sealing buffer was added to each well, and the sealing buffer was washed off after incubation at 25° C. for 60 minutes. 1000 times the concentration of the compound was 10 configured and diluted from 1 mM to 0.05 μM, and the configured compound was transferred to 384-well plates with 25 nL per well using Echo. The final concentration of the compound in the reaction system was 1000 nM, 333.33 nM, 111.11 nM, 37.03 nM, 12.34 nM, 4.11 nM, 1.37 nM, 0.45 nM, 0.15 nM, 0.05 nM, which was used as the test hole. At the same time, 25 nL DMSO was added to the negative control well and the positive control well. The PARP7 enzyme solution with a concentration of 1.67 times was prepared, and the PARP7 enzyme solution was added to the test hole and the positive control hole with 15 μL each, while the negative control hole was added with 15 μL base Buffer, and incubated at 25° C. for 15 minutes. Then 10 μL 2.5 times Biotin-NAD+ substrate solution was added and incubated at 25° C. for 60 min. After the reaction solution was washed off, the 384-well reaction plates were treated with closed buffer solution diluted with streptavidin-HRP (1:500), each well was 30 μL, and incubated at 25° C. for 30 min. After the HRP buffer was washed off, 30 μL HRP chemiluminescent substrate mixture was added to each well, and the luminescence signal (RLU) of each well was detected by Envision. Calculation formula: Inhibition rate %=(average positive control-RLU compound)/(average positive control-average negative control))*100%. The dose-response curves of each compound were fitted by GraphPad Prism 8 to get IC50 values. IC50 values less than 0.01 μM are labeled as “+++”, IC50 values from 0.01 to 0.1 µM are labeled as “++”, and IC50 values greater than 0.1 to 10.0 μM are labeled as “+”.

The subject of test [2] is NCI-H1373 cancer cells. Put plainly: NCI-H1373 cancer cell growth inhibition (CellTiter-Glo, 144 hours). Type of test: cell-based. The settings on record: Homo sapiens, 144 hours culture. The protocol:
Promega CellTiter-Glo cell activity assay kit (Item No.: Promege-G7573) was used to determine the cell activity. 90 μL NCI-H1373 cell suspension (ATCC, catalog No. CRL-5866, batch No. 58078716) was spread into the pores of the 96-well plate with 3500 cells per well. After 24 hours, the 10 μL prepared 10× compound working solution was added into the pores of the cell culture plate with a final concentration of 10 μM. 3.3333 μM, 1.1111 μM, 0.3704 μM, 0.1235 μM, 0.0412 μM, 0.0137 μM, 0.0046 μM, 0.0015 μM, 0.0005 μM, 10 μL DMSO was added to the solvent control, and the final concentration of DMSO was 0.2%. The 0-day plates were collected for analysis, and after 144 hours of culture, the growth condition of cells was detected according to the instructions of CellTiter-Glo cell activity assay kit. Add 50 μL of CellTiter-Glo working liquid into each hole of the cell culture plate, shake the plates in the dark for 2 minutes until cell lysis, and place at room temperature for 10 minutes to detect the luminous signal (RUL) of each cell hole on the 2104En Vision board reader.
Calculation formula: Growth inhibition rate %=(1−(RLU compound−RLU Day0)/(RLU solvent control−RLU Day0))*100%. The dose-response curves of each compound were fitted by GraphPad Prism 8 to obtain IC50 values.
For the matter, IC50 values less than 0.1 μM are labeled “+++”, values from 0.1 to 1 μM are labeled “++”, and values greater than 1 to 10 μM are labeled “+”.
For orientation: In ATP-based viability assays light output follows the ATP content of the culture.

As a reminder, the IC50 is the point on the concentration scale where inhibition reaches its midpoint. On to `C[C@@H](CONC(=O)CC1=CCN(c2ncc(C3CC3)cn2)CC1)Nc1cn[nH]c(=O)c1C(F)(F)F` [Example 29, (S)-2-(1-(5-cyclopropylpyrimidin-2-yl)-1,2,3,6-tetrahydropyridin-4-yl)-N-(2-((6-oxo-5-(trifluoromethyl)-1,6-dihydropyridazin-4-yl)amino)propoxy)acetamide], for which the IC50 in test [1] is under 10 nM; in test [2], under 100 nM.

As for `CC1CN(c2ncc(-c3ccccc3F)cn2)CC=C1CC(=O)NOC[C@H](C)Nc1cn[nH]c(=O)c1C(F)(F)F` (stereo partly drawn) [Example 27, 2-(1-(5-(2-fluorophenyl)pyrimidin-2-yl)-3-methyl-1,2,3,6-tetrahydropyridin-4-yl)-N—((S)-2-((6-oxo-5-(trifluoromethyl)-1,6-dihydropyridazin-4-yl)amino)propoxy)acetamide], the IC50 in test [1] was under 10 nM; in test [2] it was 100 to 1000 nM.

In the case of `C[C@@H](CONC(=O)/C=C1\CCN(c2ncc(C(F)(F)F)cn2)CC1F)Nc1cn[nH]c(=O)c1C(F)(F)F` (stereo partly drawn) [Example 23, (E)-2-(3-fluoro-1-(5-(trifluoromethyl)pyrimidin-2-yl)piperidin-4-ylidene)-N—((S)-2-((6-oxo-5-(trifluoromethyl)-1,6-dihydropyridazin-4-yl)amino)propoxy)acetamide], the IC50 is under 10 nM in test [1] and 100 to 1000 nM in test [2].

As to `C[C@@H](/C=N/OCC(=O)N1CCN(c2ccc(C#N)cn2)CC1)Nc1cn[nH]c(=O)c1C(F)(F)F` [Example 11, (S,E)-6-(4-(2-(((2-((6-oxo-5-(trifluoromethyl)-1,6-dihydropyridazin-4-yl)amino)propylidene)amino)oxy)acetyl)piperazin-1-yl)nicotinonitrile], the IC50 in test [1] is under 10 nM; in test [2], 1000 to 10000 nM.

`O=C(CO/N=C1\CCC[C@@H]1Nc1cn[nH]c(=O)c1C(F)(F)F)N1CCN(c2ncc(C(F)(F)F)cn2)CC1` [Example 9, (S,E)-5-((2-((2-oxo-2-(4-(5-(trifluoromethyl)pyrimidin-2-yl)piperazin-1-yl)ethoxy)imino)cyclopentyl)amino)-4-(trifluoromethyl)pyridazin-3(2H)-one]: the IC50 was under 10 nM in test [1] and 100 to 1000 nM in test [2].

`C[C@@H](/C=N/OCC(=O)N1CCN(c2ncc(C(F)(F)F)cn2)CC1)Nc1cn[nH]c(=O)c1C(F)(F)F` [Example 5, (S,E)-2-((6-oxo-5-(trifluoromethyl)-1,6-dihydropyridazin-4-yl)amino) propanal O-(2-oxo-2-(4-(5-(trifluoromethyl)pyrimidin-2-yl)piperazin-1-yl)ethyl) oxime]: the IC50 in test [1] was under 10 nM; in test [2], under 100 nM.

On to `C[C@@H](/C=N/OCC(=O)N1CCN(c2ccc(C(F)(F)F)cn2)CC1)Nc1cn[nH]c(=O)c1C(F)(F)F` [Example 12, (S,E)-2-((6-oxo-5-(trifluoromethyl)-1,6-dihydropyridazin-4-yl)amino)propanal O-(2-oxo-2-(4-(5-(trifluoromethyl)pyridin-2-yl)piperazin-1-yl)ethyl) oxime], for which the IC50 in test [1] was under 10 nM; in test [2] it was 100 to 1000 nM.

Regarding `CC(/C=N/OCC(=O)N1CCN(c2ncc(C(F)(F)F)cn2)CC1)c1cccc2c(=O)[nH]ncc12` (stereo not drawn) [Example 18, (E)-2-(1-oxo-1,2-dihydrophthalazin-5-yl)propanal O-(2-oxo-2-(4-(5-(trifluoromethyl)pyrimidin-2-yl)piperazin-1-yl)ethyl) oxime], the results for the IC50 in test [1] and in test [2] were under 10 nM and 1000 to 10000 nM, respectively.

On to `C[C@@H](/C=N/OCC(=O)N1CCN(c2ncc(C#N)cn2)CC1)Nc1cn[nH]c(=O)c1C(F)(F)F` [Example 7, (S,E)-2-(4-(2-(((2-((6-oxo-5-(trifluoromethyl)-1,6-dihydropyridazin-4-yl)amino)propylidene)amino)oxy)acetyl)piperazin-1-yl)pyrimidine-5-carbonitrile], for which the IC50 is under 10 nM in test [1] and 1000 to 10000 nM in test [2].

With `CC[C@@H](/C=N/OCC(=O)N1CCN(c2ncc(C(F)(F)F)cn2)CC1)Nc1cn[nH]c(=O)c1C(F)(F)F` [Example 6, (S,E)-2-((6-oxo-5-(trifluoromethyl)-1,6-dihydropyridazin-4-yl)amino)butanal O-(2-oxo-2-(4-(5-(trifluoromethyl)pyrimidin-2-yl)piperazin-1-yl)ethyl)oxime], the IC50 was under 10 nM in test [1] and 100 to 1000 nM in test [2].

In the case of `C[C@@H](CONC(=O)CC1=CCN(c2ncc(-c3ccccc3F)cn2)CC1)Nc1cn[nH]c(=O)c1C(F)(F)F` [Example 26, (S)-2-(1-(5-(2-fluorophenyl)pyrimidin-2-yl)-1,2,3,6-tetrahydropyridin-4-yl)-N-(2-((6-oxo-5-(trifluoromethyl)-1,6-dihydropyridazin-4-yl)amino)propoxy)acetamide], the figures for the IC50 in test [1] and in test [2] were under 10 nM and under 100 nM, respectively.

With `CC(/C=N/OCC(=O)N1CCN(c2ccc(C(F)(F)F)cn2)CC1)c1cccc2c(=O)[nH]ncc12` (stereo not drawn) [Example 19, (E)-2-(1-oxo-1,2-dihydrophthalazin-5-yl)propanal O-(2-oxo-2-(4-(5-(trifluoromethyl)pyridin-2-yl)piperazin-1-yl)ethyl) oxime], the IC50 in test [1] is under 10 nM; in test [2] it was 1000 to 10000 nM.
